Assay results taken from article PMC3842230 (Biochemistry, 2013).

System: Escherichia coli BL21 Δ7 cells
Experiment: cells
Assay type: cell-based
Details: BL21, 5 h, read-out: IC50 (toxic to cell growth)

Work on `COc1cccc2c1C(=O)c1c(O)c3c(c(O)c1C2=O)C[C@@](O)(C(=O)CO)C[C@@H]3O[C@H]1C[C@H](N)[C@H](O)[C@H](C)O1` [Doxorubicin, doxorubicin] yielded an IC50 of about 1000 nM.
